Measured values published in ChEMBL document CHEMBL4842364 (J Med Chem, 2021).

Experiments:
[1] = target: Serine/threonine-protein kinase PLK3 (Homo sapiens, UniProt Q9H4B4); test: Inhibition of PLK3 (unknown origin) at 1 uM relative to control
[2] = AUC in mouse plasma at 80 mg/kg, po administered once daily for 28 days; assay type: ADME, organism-based; parameters: time 28 day, dose 80 mg/kg
[3] = AUC in Beagle dog at 10 mg/kg, po measured upto 24 hrs by LC-MS/MS analysis; assay type: ADME, organism-based, Canis lupus familiaris; parameters: route oral, dose 10 mg/kg, time <=24; conditions: in vivo
[4] = tested on: Epidermal growth factor receptor (Homo sapiens), P00533 [UNDEFINED MUTATION]; test: Inhibition of EGFR d746-750 mutant (unknown origin) at 1 uM relative to control
[5] = AUC in Beagle dog at 3 mg/kg, iv measured upto 24 hrs by LC-MS/MS analysis; assay type: ADME, organism-based, Canis lupus familiaris; parameters: route intravenous, dose 3 mg/kg, time <=24; conditions: in vivo
[6] = Intrinsic clearance in human microsomes; assay type: ADME, Microsome
[7] = Plasma protein binding in human; assay type: ADME, cell-free; conditions: read-out: PPB (converted)
Wee1-like protein kinase = Wee1-like protein kinase (Homo sapiens, UniProt P30291)
Description: Displacement of Alexa Fluor labelled kinase tracer178 from WEE1 (unknown origin) incubated for 60 mins by FRET assay

[8] = target: T1, Mitogen-activated protein kinase kinase kinase 19 (Homo sapiens, UniProt Q56UN5); test: Inhibition of YSK4 (unknown origin)
T1 sequence (Q56UN5 whole entry): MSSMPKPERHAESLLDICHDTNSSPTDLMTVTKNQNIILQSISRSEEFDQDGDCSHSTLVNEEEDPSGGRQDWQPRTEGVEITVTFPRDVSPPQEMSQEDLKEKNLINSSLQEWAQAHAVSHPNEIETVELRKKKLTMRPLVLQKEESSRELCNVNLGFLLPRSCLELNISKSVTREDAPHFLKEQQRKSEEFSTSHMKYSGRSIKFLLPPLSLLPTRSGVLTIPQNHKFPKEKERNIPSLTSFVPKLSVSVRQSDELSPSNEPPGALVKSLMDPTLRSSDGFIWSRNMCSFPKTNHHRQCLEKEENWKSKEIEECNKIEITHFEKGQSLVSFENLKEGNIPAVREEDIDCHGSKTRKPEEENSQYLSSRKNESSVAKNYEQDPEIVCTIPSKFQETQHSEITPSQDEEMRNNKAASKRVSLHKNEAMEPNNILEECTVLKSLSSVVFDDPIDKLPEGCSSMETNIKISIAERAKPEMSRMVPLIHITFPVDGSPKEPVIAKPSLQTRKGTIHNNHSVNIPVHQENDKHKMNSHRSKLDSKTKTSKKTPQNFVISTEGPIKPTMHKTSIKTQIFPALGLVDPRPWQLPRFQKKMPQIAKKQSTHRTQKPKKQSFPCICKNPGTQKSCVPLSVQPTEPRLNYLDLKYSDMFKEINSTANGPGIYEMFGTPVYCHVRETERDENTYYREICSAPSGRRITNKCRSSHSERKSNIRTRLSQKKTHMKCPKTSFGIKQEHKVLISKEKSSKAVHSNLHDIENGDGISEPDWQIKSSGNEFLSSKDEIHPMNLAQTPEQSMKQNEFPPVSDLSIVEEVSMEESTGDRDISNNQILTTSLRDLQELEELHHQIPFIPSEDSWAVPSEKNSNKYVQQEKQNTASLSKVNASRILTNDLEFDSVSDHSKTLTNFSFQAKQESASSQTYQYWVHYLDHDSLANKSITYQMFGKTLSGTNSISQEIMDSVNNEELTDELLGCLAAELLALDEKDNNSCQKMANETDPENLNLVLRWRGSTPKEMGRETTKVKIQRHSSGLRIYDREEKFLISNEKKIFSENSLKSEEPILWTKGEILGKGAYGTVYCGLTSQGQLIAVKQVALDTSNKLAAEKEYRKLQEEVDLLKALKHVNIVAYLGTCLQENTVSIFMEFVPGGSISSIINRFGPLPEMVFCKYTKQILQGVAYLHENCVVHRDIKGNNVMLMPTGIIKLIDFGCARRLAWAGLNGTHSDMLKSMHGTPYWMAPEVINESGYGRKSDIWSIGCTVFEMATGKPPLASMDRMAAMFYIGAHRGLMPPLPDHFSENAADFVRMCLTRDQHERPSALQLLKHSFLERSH

[9] = target: T2, Mitogen-activated protein kinase kinase kinase 19 (Homo sapiens) (UniProt Q56UN5); test: Inhibition of YSK4 (unknown origin) at 1 uM relative to control
T2 sequence (whole entry): T1 sequence (Q56UN5 whole entry)

[10] = target: T3, Serine/threonine-protein kinase Nek1 (Homo sapiens) (UniProt Q96PY6); test: Inhibition of NEK1 (unknown origin) at 1 uM relative to control
T3 sequence (whole entry): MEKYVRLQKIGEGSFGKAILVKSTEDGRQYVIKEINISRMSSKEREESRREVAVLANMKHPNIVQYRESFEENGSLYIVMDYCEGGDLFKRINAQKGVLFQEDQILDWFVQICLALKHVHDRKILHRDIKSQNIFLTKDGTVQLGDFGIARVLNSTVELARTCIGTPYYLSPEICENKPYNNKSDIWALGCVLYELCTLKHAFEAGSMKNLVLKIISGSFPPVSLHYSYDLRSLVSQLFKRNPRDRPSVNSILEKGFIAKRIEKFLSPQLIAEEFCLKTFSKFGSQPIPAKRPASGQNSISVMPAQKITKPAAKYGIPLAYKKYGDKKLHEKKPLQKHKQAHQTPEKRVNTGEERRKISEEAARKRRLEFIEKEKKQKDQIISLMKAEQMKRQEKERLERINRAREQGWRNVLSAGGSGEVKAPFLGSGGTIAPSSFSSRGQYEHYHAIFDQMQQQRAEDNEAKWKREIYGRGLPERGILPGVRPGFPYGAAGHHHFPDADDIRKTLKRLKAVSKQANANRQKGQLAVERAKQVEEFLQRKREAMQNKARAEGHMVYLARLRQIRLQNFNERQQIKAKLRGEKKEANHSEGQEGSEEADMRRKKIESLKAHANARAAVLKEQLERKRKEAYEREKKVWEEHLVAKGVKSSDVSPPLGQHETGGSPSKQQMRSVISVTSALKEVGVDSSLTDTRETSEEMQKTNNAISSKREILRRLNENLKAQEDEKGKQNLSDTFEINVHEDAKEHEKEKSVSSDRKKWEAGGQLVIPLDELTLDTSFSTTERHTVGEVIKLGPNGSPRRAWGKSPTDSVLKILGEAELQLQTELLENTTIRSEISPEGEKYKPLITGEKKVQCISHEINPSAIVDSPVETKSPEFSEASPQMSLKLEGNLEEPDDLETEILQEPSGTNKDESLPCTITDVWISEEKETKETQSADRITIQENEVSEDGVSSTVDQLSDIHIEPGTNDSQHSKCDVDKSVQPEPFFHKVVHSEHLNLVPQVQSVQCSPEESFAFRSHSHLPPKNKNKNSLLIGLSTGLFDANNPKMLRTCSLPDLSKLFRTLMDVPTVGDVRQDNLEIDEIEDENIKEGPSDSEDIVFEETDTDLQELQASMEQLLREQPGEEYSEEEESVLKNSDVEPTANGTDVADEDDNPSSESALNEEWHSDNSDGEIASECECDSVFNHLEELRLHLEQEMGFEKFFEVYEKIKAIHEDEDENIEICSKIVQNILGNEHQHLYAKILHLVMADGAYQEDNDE

Sequence of Epidermal growth factor receptor (Homo sapiens), P00533 [UNDEFINED MUTATION] (P00533 whole entry, looked up, change not shown): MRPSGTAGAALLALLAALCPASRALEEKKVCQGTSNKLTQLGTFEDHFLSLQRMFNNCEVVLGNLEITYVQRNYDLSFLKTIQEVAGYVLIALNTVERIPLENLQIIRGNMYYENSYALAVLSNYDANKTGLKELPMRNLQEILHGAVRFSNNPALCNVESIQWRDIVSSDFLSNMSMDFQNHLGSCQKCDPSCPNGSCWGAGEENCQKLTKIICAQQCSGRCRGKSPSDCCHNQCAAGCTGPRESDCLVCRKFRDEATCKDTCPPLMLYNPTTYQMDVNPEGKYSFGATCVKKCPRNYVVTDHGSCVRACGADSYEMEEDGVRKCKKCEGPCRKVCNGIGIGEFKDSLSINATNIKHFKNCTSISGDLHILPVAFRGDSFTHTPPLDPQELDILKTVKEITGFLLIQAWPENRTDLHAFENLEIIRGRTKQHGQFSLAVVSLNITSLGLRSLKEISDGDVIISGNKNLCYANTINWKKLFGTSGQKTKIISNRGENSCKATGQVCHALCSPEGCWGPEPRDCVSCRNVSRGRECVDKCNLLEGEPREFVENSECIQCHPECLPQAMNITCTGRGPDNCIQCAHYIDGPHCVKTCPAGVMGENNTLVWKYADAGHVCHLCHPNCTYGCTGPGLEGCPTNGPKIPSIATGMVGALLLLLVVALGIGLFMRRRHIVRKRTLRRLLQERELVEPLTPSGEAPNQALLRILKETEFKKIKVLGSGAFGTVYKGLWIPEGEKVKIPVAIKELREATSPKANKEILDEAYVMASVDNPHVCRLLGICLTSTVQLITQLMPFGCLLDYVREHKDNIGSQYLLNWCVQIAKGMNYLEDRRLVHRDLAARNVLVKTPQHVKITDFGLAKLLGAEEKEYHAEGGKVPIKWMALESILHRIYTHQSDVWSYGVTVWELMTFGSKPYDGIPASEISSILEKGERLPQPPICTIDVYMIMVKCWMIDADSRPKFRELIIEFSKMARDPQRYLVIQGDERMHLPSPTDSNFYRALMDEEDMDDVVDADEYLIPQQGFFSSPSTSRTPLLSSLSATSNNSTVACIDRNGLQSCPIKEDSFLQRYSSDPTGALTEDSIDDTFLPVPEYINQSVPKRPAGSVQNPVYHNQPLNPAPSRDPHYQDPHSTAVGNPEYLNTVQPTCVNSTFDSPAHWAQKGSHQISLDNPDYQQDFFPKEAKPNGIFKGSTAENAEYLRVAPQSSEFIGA
Sequence of Serine/threonine-protein kinase PLK3 (Q9H4B4 whole entry, looked up): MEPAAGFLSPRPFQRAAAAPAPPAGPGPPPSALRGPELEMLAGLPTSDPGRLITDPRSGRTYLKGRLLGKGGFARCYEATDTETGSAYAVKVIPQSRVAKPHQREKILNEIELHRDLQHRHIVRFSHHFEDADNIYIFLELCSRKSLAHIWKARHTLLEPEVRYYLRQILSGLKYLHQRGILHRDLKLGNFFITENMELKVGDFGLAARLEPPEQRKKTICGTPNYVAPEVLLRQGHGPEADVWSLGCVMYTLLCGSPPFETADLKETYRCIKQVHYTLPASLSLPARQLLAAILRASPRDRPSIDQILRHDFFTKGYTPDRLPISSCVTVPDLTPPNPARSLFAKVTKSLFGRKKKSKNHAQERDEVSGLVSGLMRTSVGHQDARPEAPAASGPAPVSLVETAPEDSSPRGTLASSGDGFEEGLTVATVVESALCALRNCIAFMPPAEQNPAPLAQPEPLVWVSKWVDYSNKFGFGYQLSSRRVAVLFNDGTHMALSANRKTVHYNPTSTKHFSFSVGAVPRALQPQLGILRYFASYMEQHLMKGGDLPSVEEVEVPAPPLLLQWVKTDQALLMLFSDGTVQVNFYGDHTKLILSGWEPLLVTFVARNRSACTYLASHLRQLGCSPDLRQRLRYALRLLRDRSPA
Sequence of Wee1-like protein kinase (P30291 whole entry): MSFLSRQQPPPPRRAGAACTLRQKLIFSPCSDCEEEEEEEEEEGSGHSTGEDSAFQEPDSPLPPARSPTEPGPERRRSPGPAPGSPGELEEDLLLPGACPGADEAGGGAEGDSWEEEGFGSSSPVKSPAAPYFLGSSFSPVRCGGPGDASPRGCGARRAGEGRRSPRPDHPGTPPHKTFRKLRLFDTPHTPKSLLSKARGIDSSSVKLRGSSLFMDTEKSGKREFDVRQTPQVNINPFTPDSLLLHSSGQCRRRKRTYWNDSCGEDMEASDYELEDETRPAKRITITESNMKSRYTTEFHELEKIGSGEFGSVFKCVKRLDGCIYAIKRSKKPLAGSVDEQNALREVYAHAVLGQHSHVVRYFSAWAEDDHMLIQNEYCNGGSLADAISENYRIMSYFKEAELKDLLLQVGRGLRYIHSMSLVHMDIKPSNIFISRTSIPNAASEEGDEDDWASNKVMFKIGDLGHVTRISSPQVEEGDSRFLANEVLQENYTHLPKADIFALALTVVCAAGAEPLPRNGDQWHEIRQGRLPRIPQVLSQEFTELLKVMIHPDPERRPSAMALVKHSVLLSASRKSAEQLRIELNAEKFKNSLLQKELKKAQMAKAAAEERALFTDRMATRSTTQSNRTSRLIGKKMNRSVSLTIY

Question: Which inhibition [1] does the source give for C=CCn1c(=O)c2cnc(Nc3ccc(N4CCN(C)CC4)cc3)nc2n1-c1ccc2c(n1)C(O)(CC)CC2 (racemic) here?
Answer: > 90%

Question: And the AUC at 672 h [2]?
Answer: 45 µM·h

Question: And the AUC at 24 h [3]?
Answer: 9.7 µM·h

Question: What about the inhibition [4] of the same molecule?
Answer: 75%

Question: What about the AUC at 24 h [5] of the same molecule?
Answer: 2.1 µM·h

Question: What about the CLint scaled [6] of the same molecule?
Answer: 40 mL/min/kg

Question: What about the fraction unbound [7] of the same molecule?
Answer: 0.34

Question: And the IC50 (Wee1-like protein kinase)?
Answer: 3.9 nM

Question: And the IC50 [8]?
Answer: 59 nM

Question: What about the inhibition [9] of the same molecule?
Answer: > 90%

Question: And the inhibition [10]?
Answer: 75%
